Where “and” joins values, the source holds several entries; their conditions need not be identical. Identical values can stand only once.

Molecule `OC1CCCCC1` [cyclohexanol] displayed a melting point of 24 °C.

`Cc1ccc(C(=O)/C=C/c2ccc(-c3ccccc3)o2)o1`: the melting point amounted to 123 °C.

Regarding `Cc1ccc(N)c([N+](=O)[O-])c1` [4-Methyl-2-nitroaniline], the melting point worked out at 117 °C.

`Cc1cc(O)ccc1F` [4-fluoro-3-methylphenol] showed a melting point of 30 °C.

With `CC(C)(C)OC(=O)N[C@@H](Cc1ccccc1)C(=O)O` [N-boc-L-phenylalanine], the melting point was 87 °C.

`Cc1ccccc1N1CCN(CCc2nnc3n2CCCC3)CC1` [dapiprazole] displayed a melting point of 158 °C.

For the molecule `CCOc1ccc(NC(C)=O)cc1` [phenacetin], the melting point is 138 °C and 135 °C (2×).

In the case of `O=[N+]([O-])c1ccccc1C=NO` [2-nitrobenzaldoxime], the melting point turned out to be 100 °C.

`Oc1ccccc1-c1ccccc1` [o-phenylphenol] had a melting point of 60 °C.

In turn, `Nc1cc(F)c(F)cc1C(=O)O` [2-amino-4,5-difluorobenzoic acid] came in with a melting point of 182 °C.

`O=P1(NCCCl)OCCCN1CCCl` (stereo not drawn) [Ifosfamide] gave a melting point of 40 °C.

Molecule `BrCCCCCCCCBr` [1,8-dibromooctane] gave a melting point of 16 °C.

In turn, `COc1ccc(C(=O)O)cc1` [P-Anisic Acid] returned a melting point of 185 °C.

Regarding `CCCCN1CCCCC1C(=O)Nc1c(C)cccc1C` (stereo not drawn) [Bupivacaine], the melting point came out at 108 °C.

As for `O=C(O)CCc1ccc(B(O)O)cc1` [4-(2-carboxyethyl)benzeneboronic acid], the melting point turned out to be 147 °C.

In the case of `NC(=O)c1ccccc1-c1ccccc1` [o-phenylbenzamide], the melting point was 177 °C.

Molecule `CCCCCCCCS` [1-octanethiol] yielded a melting point of -49 °C.

As to `CC(=O)N(C)c1ccc(Cl)cc1Cl` [2',4'-dichloro-n-methylacetanilide], the melting point stood at 87 °C.

For the molecule `COC(=O)CCC(=O)OC` [dimethyl succinate], the melting point turned out to be 19 °C.

The molecule `Oc1ccc(Cl)cc1-c1cc[nH]n1` [4-chloro-2-(1h-pyrazol-3-yl)phenol] returned a melting point of 157 °C.

Molecule `C=CCCCCCCCCCCCCCCCCCC` [1-eicosene] registered a melting point of 29 °C.

In turn, `CCCCCCCCC` [Nonane] came in with a melting point of -53 °C.

For `NS(=O)(=O)c1cccc(Br)c1` [3-bromobenzenesulfonamide], the melting point was 156 °C.

Consider `CCCCCN` [Amylamine], for which the melting point is -55 °C.

For the molecule `Cc1cc(C=O)c(C)n1-c1cc(C(F)(F)F)cc(C(F)(F)F)c1` [OSM-S-36], the melting point was determined as 95.5 °C.

In turn, `CCOC(=O)c1sc2sc(C(=O)OCC)c(C)c2c1C` [diethyl 3,4-dimethylthieno[2,3-b]thiophene-2,5-dicarboxylate] showed a melting point of 140 °C.

In the case of `CC1(C)c2ccccc2N(Cc2ccccc2)C12C=Cc1cc([N+](=O)[O-])ccc1O2` (stereo not drawn), the melting point was determined as 159 °C.

With `ClCC1CO1` (stereo not drawn) [epichlorohydrin], the melting point was -57.1 °C.

For the molecule `O=S1(=O)CCCO1` [1,2-Oxathiolane 2,2-dioxide], the melting point amounted to 32 °C.

In the case of `Cc1ccc(C)n1-c1ccccc1` [2,5-dimethyl-1-phenylpyrrole], the melting point was found to be 50 °C.

`CCCCCCCCCCCCCCCCC` [heptadecane] showed a melting point of 22 °C.

For `CCCCCOCCCCC` [1-(Pentyloxy)pentane], the melting point was -69 °C.

`CC(N)=O` [acetamide] returned a melting point of 80 °C.

`COC(=O)c1c(C)nn(C(=O)OC)c1C` [dimethyl 3,5-dimethyl-1H-pyrazole-1,4-dicarboxylate] had a melting point of 90 °C.

Consider `O=C(Nc1ccccc1)OC1C=CC=CCC1OC(=O)Nc1ccccc1` (stereo not drawn) [cyclohepta-3,5-diene-1,2-diyl bis(phenylcarbamate)], for which the melting point amounted to 135 °C.

Turning to `C=C(C)C=O` [methacrolein], the melting point was -81 °C.

Take `O=C1C=CC(=O)O1` [maleic anhydride]: the melting point worked out at 54 °C.

In turn, `Brc1ccccc1` [bromobenzene] had a melting point of -31 °C.

By melting point is commonly meant the temperature, or range, at which the solid turns liquid.
